According to patent US11427595B2, “Compositions and methods for inhibiting viral infection” (Trustees of Boston University, priority 2018, dated 2022):

What was measured:
Huh7.5.1 cells [1] = assay: MTS cell viability assay; format: cell-based, human; conditions: 3 h treatment, 72 h incubation
Text: In this comparison, niclosamide was used as a positive control, which is known as HCV inhibitor (unclear mechanisms). Data from CellTiter-Glo assay was obtained from separate experiments conducted on a different date.
MTS (3-(4,5-dimethylthiazol-2-yl)-5-(3-carboxymethoxyphenyl)-2-(4-sulfophenyl)-2H-tetrazolium)) assay is a colorimetric assay used to determine the mitochondrial metabolic rate by quantifying the reduced formazan product of MTS in cells to reflect viable cells. To determine the CC50 of each compound, Huh7.5.1 cells were treated with compounds or DMSO at indicated doses for 3 h in 96-well plates. After removal of compounds, cells were further incubated for 72 h prior to conducting the viability assay. The MTS assay in this study is accordance with a protocol provided by manufacturer (Promega, Madison, Wis. USA). One-fifth volume of MTS reagent was added into the culture supernatant at indicated time points. Plates were incubated at 37° C. for 3 hours with 5% CO2 followed by measuring the absorbance at 490 nanometers (nm) with an ELISA reader (SpectraMax Plus 385, Molecular Devices, USA). Percentages of toxicity were calculated using the formulas: 100-percentage of vial cells relative to that from the dimethyl sulfoxide (DMSO) treated group (100%) (n=3) (FIG. 68-FIG. 71).

[2] = Cytotoxicity, CellTiter-Glo Cell Viability Luminescent Assay; format: cell-based, human; conditions: human; Huh7.5.1 cells, 3 h treatment, viability after 72 h; concentration giving 50% cell death
Protocol: (§1) To determine the […] of each compound, Huh7.5.1 cells were treated with compounds or DMSO at indicated doses for 3 h in 96-well plates. After removal of compounds, cells were further incubated for 72 h prior to the viability assay. The numbers of viable cells in culture were determined using the CellTiter-Glo Cell Viability Luminescent Assay kit according to the manufacturer's instruction (Promega). Percentages of toxicity were calculated using the formulas: 100-percentage of vial cells relative to that from the dimethyl sulfoxide (DMSO) treated group (100%) (n=3) (FIG. 20-FIG. 57).

Huh7.5.1 cells [3] = assay: as above; format: cell-based, human; conditions: Huh7.5.1 cells; for cytotoxicity (in words): comparisons are to aglaroxin C (6)
Protocol: as §1

JFH-1 HCVcc-Luc = assay: microbe, parasite or virus in culture; format: cell-based, Hepatitis C virus; conditions: for EC50: Hepatitis C virus, Huh-7.5.1, read-out: EC50, inhibition of HCV infection; for inhibition of HCV infection (in words): Huh7.5.1 cells, comparisons are to aglaroxin C (6)
[4] = system: cap-dependent Firefly luciferase (FLuc) translation; assay: In vitro translation of bicistronic FF/HCV/Ren mRNA in Krebs-2 extracts, cap-dependent; format: biochemical; conditions: 1 μM, relative to DMSO
Text: In this system, Firefly luciferase (FLuc) translation is cap-dependent whereas Renilla luciferase (RLuc) expression HCV-IRES dependent. […] Results are presented relative to values obtained in the presence of DMSO ad expressed as mean±error of two biological replicates.
In this system, translation of the Firefly luciferase (FLuc) translation is cap-dependent whereas Renilla luciferase (RLuc) translation is dependent upon the HCV internal ribosome entry site (IRES) FIG. 11A.
In vitro transcriptions and translations were performed as described previously. Plasmid encoding the bicistronic FF/HCV/Ren open reading frame was linearized with BamHI and m^7Gppp-capped mRNA was produced by in vitro transcription reactions using SP6 RNA polymerase. In vitro translation reactions were performed with S10 extracts prepared from Kreb-2 cells and programmed with 4 ng/uL of in vitro transcribed mRNA. Firefly (FF) and Renilla (Ren) luciferase activities were measured on a Berthold Lumat LB9507 Luminometer and values normalized against vehicle control, which was set at 1.

translation = conditions: previous studies; cited from earlier work

| Structure (SMILES) | cytotoxicity (in words) (Huh7.5.1 cells [3]) | inhibition of HCV infection (in words) (JFH-1 HCVcc-Luc) | also measured |
| --- | --- | --- | --- |
| COc1ccc(-c2nc3c(c(=O)[nH]2)[C@@H](c2ccccc2)[C@]2(c4ccc(OC)cc4)Oc4cc(OC)cc(OC)c4[C@]32O)cc1 (racemic) [12k, (5R,5aR,10bS)-10b-Hydroxy-8,10-dimethoxy-2,5a-bis(4-methoxyphenyl)-5-phenyl-3,5,5a,10b-tetrahydro-4H-benzofuro[2′,3′:4,5]cyclopenta[1,2-d]pyrimidin-4-one] | – | – | toxicity curve in MTS assay compared with CellTiter-Glo assay (Huh7.5.1 cells [1]): nearly identical toxicity curves |
| COc1ccc([C@@]23Oc4cc(OC)cc(OC)c4[C@]2(O)c2nc(-c4ccc(C(F)(F)F)cc4)[nH]c(=O)c2[C@H]3c2ccccc2)cc1 (racemic) [12o, (5R,5aR,10bS)-10b-Hydroxy-8,10-dimethoxy-5a-(4-methoxyphenyl)-5-phenyl-2-(4-(trifluoromethyl)phenyl)-3,5,5a,10b-tetrahydro-4H-benzofuro[2′,3′:4,5]cyclopenta[1,2-d]pyrimidin-4-one] | – | – | CC50 [2]: 10 µM; maximum cytotoxicity plateau, cell death (Huh7.5.1 cells [3]; dose-response up to 200 μM): ~100%; toxicity curve in MTS assay compared with CellTiter-Glo assay (Huh7.5.1 cells [1]): nearly identical toxicity curves; EC50 (JFH-1 HCVcc-Luc): 0.24 µM |
| COc1ccc([C@@]23Oc4cc(OC)cc(OC)c4[C@]2(O)c2nc(-c4ccccc4)[nH]c(=O)c2[C@H]3c2ccccc2)cc1 [12a, (5R,5aR,10bS)-10b-Hydroxy-8,10-dimethoxy-5a-(4-methoxyphenyl)-2,5-diphenyl-3,5,5a,10b-tetrahydro-4H-benzofuro[2′,3′:4,5]cyclopenta[1,2-d]pyrimidin-4-one] | plateauing of cytotoxicity | promising increase of inhibition | CC50 [2]: 8.1 µM; EC50 (JFH-1 HCVcc-Luc): 0.42 µM |
| COc1ccc([C@@]23Oc4cc(OC)cc(OC)c4[C@]2(O)c2nc(-c4ccccn4)[nH]c(=O)c2[C@H]3c2ccccc2)cc1 [12ab, (5R,5aR,10bS)-10b-Hydroxy-8,10-dimethoxy-5a-(4-methoxyphenyl)-5-phenyl-2-(pyridin-2-yl)-3,5,5a,10b-tetrahydro-4H-benzofuro[2′,3′:4,5]cyclopenta[1,2-d]pyrimidin-4-one] | – | slightly increased inhibition | – |
| COc1ccc([C@@]23Oc4cc(OC)cc(OC)c4[C@]2(O)c2nc4n(c(=O)c2[C@H]3c2ccccc2)CCCC4)cc1 [12ad, (5aR,6R,13bS)-13b-Hydroxy-1,3-dimethoxy-5a-(4-methoxyphenyl)-6-phenyl-6,9,10,11,12,13b-hexahydrobenzofuro[2′,3′:4,5]cyclopenta[1,2-d]pyrido[1,2-a]pyrimidin-7(5aH)-one] | – | moderate antiviral activity | – |
| COc1ccc([C@@]23Oc4cc(OC)cc(OC)c4[C@]2(O)c2nc(-c4ccccc4)n(C)c(=O)c2[C@H]3c2ccccc2)cc1 [12ae, (5R,5aR,10bS)-10b-Hydroxy-8,10-dimethoxy-5a-(4-methoxyphenyl)-3-methyl-2,5-diphenyl-3,5,5a,10b-tetrahydro-4H-benzofuro[2′,3′:4,5]cyclopenta[1,2-d]pyrimidin-4-one] | plateauing of cytotoxicity | – | CC50 [2]: 7.3 µM; EC50 (JFH-1 HCVcc-Luc): 0.2 µM |
| COc1ccc([C@@]23Oc4cc(OC)cc(OC)c4[C@]2(O)c2nc(Nc4ccccc4)n(-c4ccccc4)c(=O)c2[C@H]3c2ccccc2)cc1 [12af, (5R,5aR,10bS)-10b-Hydroxy-8,10-dimethoxy-5a-(4-methoxyphenyl)-3,5-diphenyl-2-(phenylamino)-3,5,5a,10b-tetrahydro-4H-benzofuro[2′,3′:4,5]cyclopenta[1,2-d]pyrimidin-4-one] | – | moderate antiviral activity | – |
| COc1ccc([C@@]23Oc4cc(OC)cc(OC)c4[C@]2(O)c2nc(-c4ccccc4)[nH]c(=O)c2[C@@H]3c2ccccc2)cc1 [12ah, (5S,5aR,10bS)-10b-Hydroxy-8,10-dimethoxy-5a-(4-methoxyphenyl)-2,5-diphenyl-3,5,5a,10b-tetrahydro-4H-benzofuro[2′,3′:4,5]cyclopenta[1,2-d]pyrimidin-4-one] | no cytotoxicity | inactive | – |
| COc1ccc([C@@]23Oc4cc(OC)cc(OC)c4[C@]2(OC)c2nc(-c4ccccc4)n(C)c(=O)c2[C@H]3c2ccccc2)cc1 [12ai, (5R,5aR,10bS)-8,10,10b-Trimethoxy-5a-(4-methoxyphenyl)-3-methyl-2,5-diphenyl-3,5,5a,10b-tetrahydro-4H-benzofuro[2′,3′:4,5]cyclopenta[1,2-d]pyrimidin-4-one] | – | – | EC50 (JFH-1 HCVcc-Luc): 9.2 µM |
| COc1ccc([C@@]23Oc4cc(OC)cc(OC)c4[C@]2(O)c2nc(-c4ccccc4)nc(OC)c2[C@H]3c2ccccc2)cc1 [12aj, (5R,5aR,10bS)-4,8,10-Trimethoxy-5a-(4-methoxyphenyl)-2,5-diphenyl-5,5a-dihydro-10bH-benzofuro[2′,3′:4,5]cyclopenta[1,2-d]pyrimidin-10b-ol] | non-toxic | inactive | – |
| COc1ccc([C@@]23Oc4cc(OC)cc(OC)c4[C@]2(O)c2nc(C4CCCCC4)[nH]c(=O)c2[C@H]3c2ccccc2)cc1 [12e, (5R,5aR,10bS)-2-Cyclohexyl-10b-hydroxy-8,10-dimethoxy-5a-(4-methoxyphenyl)-5-phenyl-3,5,5a,10b-tetrahydro-4H-benzofuro[2′,3′:4,5]cyclopenta[1,2-d]pyrimidin-4-one] | plateauing of cytotoxicity | – | EC50 (JFH-1 HCVcc-Luc): 2.5 µM |
| COc1ccc([C@@]23Oc4cc(OC)cc(OC)c4[C@]2(O)c2nc(C4CC4)[nH]c(=O)c2[C@H]3c2ccccc2)cc1 [12h, (5R,5aR,10bS)-2-Cyclopropyl-10b-hydroxy-8,10-dimethoxy-5a-(4-methoxyphenyl)-5-phenyl-3,5,5a,10b-tetrahydro-4H-benzofuro[2′,3′:4,5]cyclopenta[1,2-d]pyrimidin-4-one] | – | increased inhibition | – |
| COc1ccc([C@@]23Oc4cc(OC)cc(OC)c4[C@]2(O)c2nc(N4CCOCC4)[nH]c(=O)c2[C@H]3c2ccccc2)cc1 [12j, (5R,5aR,10bS)-10b-Hydroxy-8,10-dimethoxy-5a-(4-methoxyphenyl)-2-morpholino-5-phenyl-3,5,5a,10b-tetrahydro-4H-benzofuro[2′,3′:4,5]cyclopenta[1,2-d]pyrimidin-4-one] | – | moderate antiviral activity | – |
| COc1ccc([C@@]23Oc4cc(OC)cc(OC)c4[C@]2(O)c2nc(-c4cnccn4)[nH]c(=O)c2[C@H]3c2ccccc2)cc1 [12y, (5R,5aR,10bS)-10b-Hydroxy-8,10-dimethoxy-5a-(4-methoxyphenyl)-5-phenyl-2-(pyrazin-2-yl)-3,5,5a,10b-tetrahydro-4H-benzofuro[2′,3′:4,5]cyclopenta[1,2-d]pyrimidin-4-one] | – | slightly increased inhibition | – |
| COc1ccc([C@]23Oc4cc(OC)cc(OC)c4[C@@]2(O)c2nc(-c4ccc(C)cc4)[nH]c(=O)c2[C@@H]3c2ccccc2)cc1 [(−)-12l] | non-toxic | inactive | – |
| COc1ccc([C@]23Oc4cc(OC)cc(OC)c4[C@@]2(O)c2nc(-c4cccc(OC)c4)[nH]c(=O)c2[C@@H]3c2ccccc2)cc1 [(−)-12s] | non-toxic | inactive | – |
| CONC(=O)[C@H]1[C@@H](O)[C@@]2(O)c3c(OC)cc(OC)cc3O[C@@]2(c2ccc(OC)cc2)[C@@H]1c1ccccc1 [CR-1-31-B, reference compound] | – | – | translation inhibition of firefly luciferase (cap-dependent) [4]: strong inhibition |
| COC(=O)[C@H]1[C@@H](O)[C@@]2(O)c3c(OC)cc(O[C@@H]4O[C@@H]([C@H](O)CO)CO[C@H]4OC)cc3O[C@@]2(c2ccc(OC)cc2)[C@@H]1c1ccccc1 [silvestrol] | – | – | translation inhibition (in words) (translation): excellent translation inhibitor |
